How the values were obtained:
human platelets = assay: MCATS assay of human platelet forces on Ttol=12 pN surface
Procedure: Each drug was incubated for 30 min prior to seeding. Mechano-IC50 was calculated by fitting a plot to a standard dose-response function: Signal=Bottom+(Top-Bottom)/(1+([drug]/IC50).
Platelet-rich plasma (PRP) is prepared by centrifugation and separation from whole blood. Then platelets rich plasma was separated and centrifuged a second time with apyrase and resuspended in Tyrode's solution, which is isotonic with interstitial fluid, contains magnesium, and uses bicarbonate and phosphate as a buffer. Apyrase is important in the platelets purification process to prevent hemolysis caused platelets aggregation. MCATS was tested as a function of the number of platelets seeded on the Ttol=12pN surface (FIG. 3A). […]
MCATS assay was performed on the prepared biotin surface as described in the surface preparation section. […] Surfaces with exposed activator were imaged directly with fluorescence microscopy for high resolution characterization and quantification. […] After 1 h of incubation, fluorescence intensities on 96 well plates were measured with a plate reader (Ex/Em=540/590 nm for reporter channel).
For platelet MCATS measurements, human platelets were purified and incubated at room temperature for at least 30 min before beginning experiments. […] The same MCATS protocols were followed to achieve amplification and quantification for platelets.

NIH/3T3 cells = assay: MCATS assay of integrin-mediated forces in NIH/3T3 cells, plate reader readout; format: cell-based; conditions: NIH/3T3 cells pretreated 30 min, 0-50 μM
Procedure: The values were normalized to the signal obtained from the 25,000 cells/well samples without drug treatment. All measurements were background subtracted using negative control wells lacking cells.
Considering that receptor mediated tension plays an important role in cell function, quantifying molecular forces of cell in a rapid fashion facilitates applications such as screening dose-response curves for drugs that modulate cell mechanics. Experiments were performed to determine whether MCATS can be used to produce a dose response curve for NIH-3T3 cell incubated with Rho kinase inhibitor, Y-27632, which targets the phosphorylation of myosin light chain and therefore dampens forces transmitted by focal adhesions. NIH/3T3 cells were pretreated with a range of Y-27632 concentrations (0-50 μM) for 30 min. MCATS was ran with the drug treated cell.
The wells were washed with 1×PBS.

SMILES | MCATS tension signal, dose-response to agonist (human platelets) | MCATS signal as a function of drug concentration (NIH/3T3 cells)
Nc1ncnc2c1ncn2[C@@H]1O[C@H](COP(=O)(O)OP(=O)(O)O)[C@@H](O)[C@H]1O [ADP] | Increasing tension signal | –
C[C@@H](N)[C@H]1CC[C@H](C(=O)Nc2ccncc2)CC1 [Y-27632] | – | dose-dependent reduction

— patent US20260168007A1, “Methods and Devices for Detecting Mechanical Forces Using Cas Nuclease and Guide RNA Complexes” (Emory University, priority 2022, published 2026)
